Test results: ChEMBL document CHEMBL3124779, “Discovery of ABT-267, a pan-genotypic inhibitor of HCV NS5A” (J Med Chem, 2014)
≈ marks a conversion by molar mass, not a printed value.

Key:
Hepatitis C virus [1] = assay: Antiviral activity against HCV genotype 1 infected in human assessed as cure rate; assay type: functional, Hepacivirus hominis
[2] = Kinetic solubility of the compound in 10 mM of phosphate buffer at pH 7.2 by CLND method; assay type: physicochemical; details: read-out: Kinetic_solubility
[3] = Half life in rat at 3 mg/kg, iv; assay type: ADME, organism-based; parameters: dose 3 mg/kg, route intravenous; details: in vivo
Hepatitis C virus [4] = assay: Ratio of EC50 for HCV1b Con1 infected in human HuH7 cells in presence of 40% human plasma to EC50 for HCV1b Con1 infected in human HuH7 cells in absence of 40% human plasma; assay type: functional, Hepacivirus hominis, isolate Con1, Huh-7
[5] = Lipophilicity, log D of the compound at pH 7.4 by HPLC analysis; assay type: physicochemical; details: buffer
[6] = Cmax in rat at 3 mg/kg, po; assay type: ADME, organism-based; parameters: dose 3 mg/kg, route oral; details: in vivo
[7] = Metabolic stability in rat liver microsomes assessed as compound remaining after 30 mins; assay type: ADME; details: read-out: Stability
[8] = Half life in dog at 2.5 mg/kg, po; assay type: ADME, organism-based, Canis lupus familiaris; parameters: dose 2.5 mg/kg, route oral; details: in vivo
[9] = Oral bioavailability in rat at 3 mg/kg; assay type: ADME, organism-based; details: in vivo
[10] = Half life in monkey at 1 mg/kg, iv; assay type: ADME, organism-based, Macaca mulatta; parameters: dose 1 mg/kg, route intravenous; details: rhesus monkey, in vivo
Hepatitis C virus [11] = assay: Ratio of EC50 for HCV1a H77 infected in human HuH7 cells in presence of 40% human plasma to EC50 for HCV1a H77 infected in human HuH7 cells in absence of 40% human plasma; assay type: functional, Hepacivirus hominis, genotype 1a H77, Huh-7
Hepatitis C virus [12] = assay: Antiviral activity against HCV1a H77 infected in human HuH7 cells assessed as inhibition of viral replication after 4 days by luciferase reporter gene assay; assay type: functional, organism-based, Hepacivirus hominis; details: genotype 1a H77, Huh-7, 96 h
[13] = Metabolic stability in human liver microsomes assessed as compound remaining after 30 mins; assay type: ADME; details: read-out: Stability
[14] = Tmax in monkey at 2.5 mg/kg, po; assay type: ADME, organism-based, Macaca mulatta; parameters: dose 2.5 mg/kg, route oral; details: rhesus monkey, in vivo
[15] = Half life in rat at 3 mg/kg, po; assay type: ADME, organism-based; parameters: dose 3 mg/kg, route oral; details: in vivo
[16] = Cmax in monkey at 2.5 mg/kg, po; assay type: ADME, organism-based, Macaca mulatta; parameters: dose 2.5 mg/kg, route oral; details: rhesus monkey, in vivo
[17] = Cmax in dog at 2.5 mg/kg, po; assay type: ADME, organism-based, Canis lupus familiaris; parameters: dose 2.5 mg/kg, route oral; details: in vivo
[18] = Oral bioavailability in dog at 2.5 mg/kg; assay type: ADME, organism-based, Canis lupus familiaris; details: in vivo
Hepatitis C virus [19] = assay: Antiviral activity against HCV1a H77 infected in human HuH7 cells assessed as inhibition of viral replication after 4 days by luciferase reporter gene assay in presence of 40% human plasma; assay type: functional, organism-based, Hepacivirus hominis; details: genotype 1a H77, Huh-7, Plasma, 96 h
[20] = Volume of distribution at steady state in rat at 3 mg/kg, iv; assay type: ADME, organism-based; parameters: dose 3 mg/kg, route intravenous; details: in vivo, read-out: Vdss
[21] = AUC in rat at 3 mg/kg, po; assay type: ADME, organism-based; parameters: dose 3 mg/kg, route oral; details: plasma
[22] = Clearance in rat at 3 mg/kg, iv; assay type: ADME, organism-based; parameters: dose 3 mg/kg, route intravenous; details: in vivo
[23] = Clearance in monkey at 1 mg/kg, iv; assay type: ADME, organism-based, Macaca mulatta; parameters: dose 1 mg/kg, route intravenous; details: rhesus monkey, in vivo
[24] = Volume of distribution at steady state in monkey at 1 mg/kg, iv; assay type: ADME, organism-based, Macaca mulatta; parameters: dose 1 mg/kg, route intravenous; details: rhesus monkey, in vivo, read-out: Vdss
[25] = Tmax in rat at 3 mg/kg, po; assay type: ADME, organism-based; parameters: dose 3 mg/kg, route oral; details: in vivo
[26] = Half life in dog at 1 mg/kg, iv; assay type: ADME, organism-based, Canis lupus familiaris; parameters: dose 1 mg/kg, route intravenous; details: in vivo
[27] = Half life in monkey at 2.5 mg/kg, po; assay type: ADME, organism-based, Macaca mulatta; parameters: dose 2.5 mg/kg, route oral; details: rhesus monkey, in vivo
Hepatitis C virus [28] = assay: Antiviral activity against HCV1b Con1 infected in human HuH7 cells assessed as inhibition of viral replication after 4 days by luciferase reporter gene assay; assay type: functional, organism-based, Hepacivirus hominis; details: isolate Con1, Huh-7, 96 h
[29] = Tmax in dog at 2.5 mg/kg, po; assay type: ADME, organism-based, Canis lupus familiaris; parameters: dose 2.5 mg/kg, route oral; details: in vivo
[30] = AUC in dog at 2.5 mg/kg, po; assay type: ADME, organism-based, Canis lupus familiaris; parameters: dose 2.5 mg/kg, route oral; details: plasma
[31] = Clearance in dog at 1 mg/kg, iv; assay type: ADME, organism-based, Canis lupus familiaris; parameters: dose 1 mg/kg, route intravenous; details: in vivo
[32] = AUC in monkey at 2.5 mg/kg, po; assay type: ADME, organism-based, Macaca mulatta; parameters: dose 2.5 mg/kg, route oral; details: rhesus monkey, plasma
[33] = Volume of distribution at steady state in dog at 1 mg/kg, iv; assay type: ADME, organism-based, Canis lupus familiaris; parameters: dose 1 mg/kg, route intravenous; details: in vivo, read-out: Vdss
Hepatitis C virus [34] = assay: Antiviral activity against HCV1b Con1 infected in human HuH7 cells assessed as inhibition of viral replication after 4 days by luciferase reporter gene assay in presence of 40% human plasma; assay type: functional, organism-based, Hepacivirus hominis; details: isolate Con1, Huh-7, Plasma, 96 h
[35] = Oral bioavailability in monkey at 2.5 mg/kg; assay type: ADME, organism-based, Macaca mulatta; details: rhesus monkey, in vivo

| Compound | solubility kinetic [2] [µM] | half-life [3] [h] | Ratio EC50 (Hepatitis C virus [4]) | logD [5] | Cmax [6] [ng/mL] | remaining at 0.5 h [7] [%] | half-life [8] [h] | bioavailability [9] [%] | Ratio EC50 (Hepatitis C virus [11]) | EC50 (Hepatitis C virus [12]) [pM] | remaining at 0.5 h [13] [%] | half-life [15] [h] | Cmax [17] [ng/mL] | bioavailability [18] [%] | EC50 (Hepatitis C virus [19]) [pM] | Vd [20] [L/kg] | AUC [21] [ng·h/mL] | clearance [22] [mL/min/kg] | Tmax [25] [h] | half-life [26] [h] | other results |
| --- | --- | --- | --- | --- | --- | --- | --- | --- | --- | --- | --- | --- | --- | --- | --- | --- | --- | --- | --- | --- | --- |
| CCC[C@H](NC(=O)[C@@H]1[C@H]2CCC[C@H]2CN1C(=O)[C@@H](NC(=O)[C@@H](NC(=O)c1cnccn1)C1CCCCC1)C(C)(C)C)C(=O)C(=O)NC1CC1 |  |  |  |  |  |  |  |  |  |  |  |  |  |  |  |  |  |  |  |  | Activity (Hepatitis C virus [1]): <=75% |
| COC(=O)N[C@H](C(=O)N1CCC[C@H]1C(=O)Nc1ccc([C@H]2CC[C@H](c3ccc(NC(=O)[C@@H]4CCCN4C(=O)[C@@H](NC(=O)OC)C(C)(C)C)cc3)N2c2ccc(F)cc2)cc1)C(C)(C)C | 3.9 (≈ 3.45 µg/mL) | 7.5 | 20 | 5.2 | 960 | 69 | 10.3 | 39 | 18 | 1180 | 54 | 7 | 1070 | 94 | 20800 | 1 | 10200 | 1.67 | 2.3 | 9.1 | half-life [10]: 4.6 h; Tmax [14]: 1.7 h; Cmax [16]: 120 ng/mL; clearance [23]: 15.5 mL/min/kg; Vd [24]: 4.1 L/kg; half-life [27]: 5.4 h; EC50 (Hepatitis C virus [28]): 8 pM; Tmax [29]: 2.7 h; AUC [30]: 18300 ng·h/mL; clearance [31]: 2.17 mL/min/kg; AUC [32]: 490 ng·h/mL; Vd [33]: 1.6 L/kg; EC50 (Hepatitis C virus [34]): 162 pM; bioavailability [35]: 18% |
| COC(=O)N[C@H](C(=O)N1CCC[C@H]1C(=O)Nc1ccc([C@@H]2CC[C@@H](c3ccc(NC(=O)[C@@H]4CCCN4C(=O)[C@@H](NC(=O)OC)C(C)C)cc3)N2c2ccc(C(F)(F)F)cc2)cc1)C(C)C | 3.4 (≈ 3.08 µg/mL) | 6 | 10 | 4.8 | 30 | 56 | 5.8 | 16 | 11 | 57 | 52 | 12.1 | 70 | 5.5 | 650 | 8.9 | 500 | 20 | 2.2 | 6 | EC50 (Hepatitis C virus [28]): 7.1 pM; Tmax [29]: 4.7 h; AUC [30]: 850 ng·h/mL; clearance [31]: 2.67 mL/min/kg; Vd [33]: 1.3 L/kg; EC50 (Hepatitis C virus [34]): 72 pM |
| COC(=O)N[C@H](C(=O)N1CCC[C@H]1C(=O)Nc1ccc([C@H]2CC[C@H](c3ccc(NC(=O)[C@@H]4CCCN4C(=O)[C@@H](NC(=O)OC)C(C)C)cc3)N2c2ccc(C(F)(F)F)cc2)cc1)C(C)C | 3.2 (≈ 2.9 µg/mL) | 4.2 | 12 | 4.9 | 200 | 58 | 5.5 | 13 | 9 | 299 | 58 | 4.9 | 50 | 4.2 | 2550 | 1.3 | 1360 | 4.83 | 1.5 | 4.4 | EC50 (Hepatitis C virus [28]): 6.2 pM; Tmax [29]: 1.7 h; AUC [30]: 370 ng·h/mL; clearance [31]: 4.83 mL/min/kg; Vd [33]: 1.5 L/kg; EC50 (Hepatitis C virus [34]): 77 pM |
| COC(=O)N[C@H](C(=O)N1CCC[C@H]1C(=O)Nc1ccc([C@H]2CC[C@H](c3ccc(NC(=O)[C@@H]4CCCN4C(=O)[C@@H](NC(=O)OC)C(C)C)cc3)N2c2ccc(F)cc2)cc1)C(C)C | 6 (≈ 5.14 µg/mL) | 3.3 | 5 | 4.6 | 1380 | 38 | 2.2 | 22 | 4 | 2530 | 38 | 2.8 | 420 | 62 | 11100 | 0.5 | 6360 | 2.17 | 1.3 | 2 | half-life [10]: 0.8 h; Tmax [14]: 1.5 h; Cmax [16]: 50 ng/mL; clearance [23]: 51.7 mL/min/kg; Vd [24]: 1.5 L/kg; half-life [27]: 0.6 h; EC50 (Hepatitis C virus [28]): 42 pM; Tmax [29]: 1.2 h; AUC [30]: 1280 ng·h/mL; clearance [31]: 21.7 mL/min/kg; AUC [32]: 80 ng·h/mL; Vd [33]: 1.9 L/kg; EC50 (Hepatitis C virus [34]): 208 pM; bioavailability [35]: 10% |
| CC(C)(C)NC(=O)N[C@H](C(=O)N1C[C@H]2[C@@H]([C@H]1C(=O)NC(CC1CCC1)C(=O)C(N)=O)C2(C)C)C(C)(C)C (some centres not stated) [BOCEPREVIR] |  |  |  |  |  |  |  |  |  |  |  |  |  |  |  |  |  |  |  |  | Activity (Hepatitis C virus [1]): <=75% |
